Source: patent US20260274818A1, “HETEROCYCLOALKYL BETA-HYDROXY ALKYL AMINES FOR USE IN THE TREATMENT OF HYPERGLYCAEMIA AND DISORDERS CHARACTERISED BY HYPERGLYCAEMIA” (ATROGI AB, priority 2023, published 2026)
Where a name gives a salt, the structure may show the parent alone.

How the values were obtained:
L6-myotubes = assay: Glucose uptake (3H-2-deoxyglucose) in differentiated L6-myotubes; assay type: cell-based; details: compound at 10 μM vs isoproterenol at 10 μM
Protocol: (§1) L6-myoblasts were grown in Dulbecco's Modified Eagle's Medium (DMEM) containing 1 g/L glucose supplemented with 10% fetal bovine serum, 2 mM L-Glutamine, 50 U/mL penicillin, […] streptomycin and 10 mM HEPES. Cells were plated at 1×10^5 cells per mL in 24-well plates. After reaching 90% confluence the cells were grown in medium containing 2% FBS for 7 days where upon cells differentiated into myotubes.
Differentiated L6-myotubes were serum-starved overnight in medium containing 0.5% fatty-acid free BSA and stimulated with an agonist, with a final concentration of 1×10^−5 M. After 1 h 40 min the cells were washed with warm glucose free medium or PBS twice and another portion of agonist was added to the glucose free medium. After 20 min the cells were exposed to 50 nM ^3H-2-deoxyglucose for another 10 min before washed in ice cold glucose free medium or PBS three times and lysed in 400 μL/well 0.2 M NaOH for 1 h at 60° C. The cell lysate was mixed with 4 mL scintillation buffer (Emulsifier Safe, Perkin Elmer) and the radioactivity was detected in a β-counter (Tri-Carb 4810TR, Perkin Elmer). The activity for each compound is compared to that of isoproterenol.

Intracellular cAMP = assay: Measurement of intracellular cAMP levels in differentiated L6 cells (alpha screen cAMP kit); assay type: cell-based; details: compound at 10 μM for 15 min vs isoproterenol at 10 μM
Protocol: as §1
Differentiated cells were serum-starved overnight and stimulated with an agonist, final concentration 1×10^−5 M, for 15 min in stimulation buffer (HBSS supplemented with 1% BSA, 5 mM HEPES and 1 mM IBMX, pH 7.4). The medium was aspirated and 100 μL of 95% EtOH was added to each well of the 24-well plate and cells were kept at −20° C. overnight. The EtOH was allowed to evaporate and 500 μL of lysis buffer (1% BSA, 5 mM HEPES and 0.3% Tween-20, pH 7.4) was added to each well. The plate was kept at −80° C. for 30 min and then at −20° C. until the day of detection when the samples were thawed. Intracellular cAMP levels were detected using an alpha screen cAMP kit (6760635D from Perkin Elmer). The activity for each compound is compared to that of isoproterenol.

| Structure (SMILES) | Biological example 1: glucose uptake, activity compared to that of isoproterenol (L6-myotubes) | Biological example 2: intracellular cAMP levels, activity compared to that of isoproterenol (Intracellular cAMP) |
| --- | --- | --- |
| CS(=O)(=O)N1CCC[C@H](C[C@@H]2CC[C@H]([C@@H](O)c3cccc(F)c3)N2)C1.Cl [Example 11, (S)-(3-Fluorophenyl)((2R,5S)-5-(((R)-1-(methylsulfonyl)piperidin-3-yl)methyl)pyrrolidin-2-yl)methanol hydrochloride] | + (if it is between 50 and 25% it is denoted with +) | − (if it less than 25% it is denoted with −) |
| O[C@@H](c1cccc(F)c1)[C@H]1CC[C@@H](CC2CCNCC2)N1 [Example 2, (S)-(3-Fluorophenyl)((2R,5S)-5-(piperidin-4-ylmethyl)pyrrolidin-2-yl)-methanol dihydrochloride] | + (if it is between 50 and 25% it is denoted with +) | − (if it less than 25% it is denoted with −) |
| CC(=O)N1CCC(C[C@@H]2CC[C@H]([C@@H](O)c3cccc(F)c3)N2)CC1.Cl [Example 10, 1-(4-(((2S,5R)-5-((S)-(3-Fluorophenyl)(hydroxy)methyl)pyrrolidin-2-yl)methyl)piperidin-1-yl)ethan-1-one hydrochloride] | − (if it less than 25% it is denoted with −) | − (if it less than 25% it is denoted with −) |
| O[C@H](c1cccc(F)c1)[C@H]1CC[C@@H](C[C@H]2CCCNC2)N1 [Example 5, (R)-(3-Fluorophenyl)((2R,5S)-5-(((R)-piperidin-3-yl)methyl)pyrrolidin-2-yl)methanol dihydrochloride] | ++ (if it is between 75 and 50% it is denoted with ++) | − (if it less than 25% it is denoted with −) |
| CS(=O)(=O)N1CCC(C[C@@H]2CC[C@H]([C@H](O)c3cccc(F)c3)N2)CC1.Cl [Example 7, (R)-(3-Fluorophenyl)((2R,5S)-5-((1-(methylsulfonyl)piperidin-4-yl)-methyl)pyrrolidin-2-yl)methanol hydrochloride] | +++ (more than 75% of that of isoproterenol at 10 μM, the activity is denoted with +++) | − (if it less than 25% it is denoted with −) |
| CS(=O)(=O)N1CCC[C@@H](C[C@@H]2CC[C@H]([C@H](O)c3cccc(F)c3)N2)C1.Cl [Example 14, (R)-(3-Fluorophenyl)((2R,5S)-5-(((S)-1-(methylsulfonyl)piperidin-3-yl)methyl)pyrrolidin-2-yl)methanol hydrochloride] | +++ (more than 75% of that of isoproterenol at 10 μM, the activity is denoted with +++) | − (if it less than 25% it is denoted with −) |
| Cl.O[C@@H](c1cccc(F)c1)[C@H]1CC[C@@H](CC2CCOCC2)N1 [Example 15, (S)-(3-Fluorophenyl)((2R,5S)-5-((tetrahydro-2H-pyran-4-yl)methyl)-pyrrolidin-2-yl)methanol hydrochloride] | ++ (if it is between 75 and 50% it is denoted with ++) | − (if it less than 25% it is denoted with −) |
| CS(=O)(=O)N1CCC[C@H](C[C@@H]2CC[C@H]([C@H](O)c3cccc(F)c3)N2)C1.Cl [Example 12, (R)-(3-Fluorophenyl)((2R,5S)-5-(((R)-1-(methylsulfonyl)piperidin-3-yl)methyl)pyrrolidin-2-yl)methanol hydrochloride] | +++ (more than 75% of that of isoproterenol at 10 μM, the activity is denoted with +++) | − (if it less than 25% it is denoted with −) |
| CS(=O)(=O)N1CCC(C[C@@H]2CC[C@H]([C@@H](O)c3cccc(F)c3)N2)CC1.Cl [Example 8, (S)-(3-Fluorophenyl)((2R,5S)-5-((1-(methylsulfonyl)piperidin-4-yl)-methyl)pyrrolidin-2-yl)methanol hydrochloride] | ++ (if it is between 75 and 50% it is denoted with ++) | − (if it less than 25% it is denoted with −) |
| OC(c1cccc(F)c1)[C@H]1CC[C@@H](CC2CCCNC2)N1 (stereo in doubt) [Example 3, (S)-(3-Fluorophenyl)((2R,5S)-5-(((R)-piperidin-3-yl)methyl)pyrrolidin-2-yl)methanol dihydrochloride] | + (if it is between 50 and 25% it is denoted with +) | − (if it less than 25% it is denoted with −) |
| CS(=O)(=O)N1CCC[C@@H](C[C@@H]2CC[C@H]([C@@H](O)c3cccc(F)c3)N2)C1.Cl [Example 13, (S)-(3-Fluorophenyl)((2R,5S)-5-(((S)-1-(methylsulfonyl)piperidin-3-yl)methyl)pyrrolidin-2-yl)methanol hydrochloride] | ++ (if it is between 75 and 50% it is denoted with ++) | − (if it less than 25% it is denoted with −) |
| OC(c1cccc(F)c1)[C@H]1CC[C@@H](CC2CCCNC2)N1 (stereo in doubt) [Example 6, (R)-(3-Fluorophenyl)((2R,5S)-5-(((S)-piperidin-3-yl)methyl)pyrrolidin-2-yl)methanol dihydrochloride] | +++ (more than 75% of that of isoproterenol at 10 μM, the activity is denoted with +++) | − (if it less than 25% it is denoted with −) |
| CC(=O)N1CCC(C[C@@H]2CC[C@H]([C@H](O)c3cccc(F)c3)N2)CC1.Cl [Example 9, 1-(4-(((2S,5R)-5-((R)-(3-Fluorophenyl)(hydroxy)methyl)pyrrolidin-2-yl)methyl)piperidin-1-yl)ethan-1-one hydrochloride] | +++ (more than 75% of that of isoproterenol at 10 μM, the activity is denoted with +++) | − (if it less than 25% it is denoted with −) |
| O[C@@H](c1cccc(F)c1)[C@H]1CC[C@@H](C[C@@H]2CCCNC2)N1 [Example 4, (S)-(3-Fluorophenyl)((2R,5S)-5-(((S)-piperidin-3-yl)methyl)pyrrolidin-2-yl)methanol dihydrochloride] | ++ (if it is between 75 and 50% it is denoted with ++) | − (if it less than 25% it is denoted with −) |
| O[C@H](c1cccc(F)c1)[C@H]1CC[C@@H](CC2CCNCC2)N1 [Example 1, (R)-(3-Fluorophenyl)((2R,5S)-5-(piperidin-4-ylmethyl)pyrrolidin-2-yl)-methanol dihydrochloride] | ++ (if it is between 75 and 50% it is denoted with ++) | − (if it less than 25% it is denoted with −) |
| Cl.O[C@H](c1cccc(F)c1)[C@H]1CC[C@@H](CC2CCOCC2)N1 [Example 16, (R)-(3-Fluorophenyl)((2R,5S)-5-((tetrahydro-2H-pyran-4-yl)methyl)-pyrrolidin-2-yl)methanol hydrochloride] | +++ (more than 75% of that of isoproterenol at 10 μM, the activity is denoted with +++) | + (if it is between 50 and 25% it is denoted with +) |
